Converted amounts (≈) assume the structure as drawn. Like-named read-outs stand apart in the source and are kept apart here.
Tests used:
Type in all cases: cell-based
[1] = system: Aspergillus fumigatus TR46 (TR46/Y121F/T289A); experiment: Planktonic fungus growth: broth microdilution assay (TR46); conditions: Aspergillus fumigatus, read-out: MIC75 Values against Aspergillus fumigatus isolate TR46
Experimental: (§1) This assay was conducted using a modified method published by EUCAST (Rodriguez-Tudela, et al., 2008). Spores of Aspergillus fumigatus (NCPF2010, NCPF7010 [methionine 220 mutation], NCPF7099 [Glycine G54 mutation]) from Public Health England, Wiltshire; TR34/L98H mutants from St Louis Hospital, Paris, France; TR46/Y121F/T289A mutants from University of Delhi, Delhi, India) were cultured in Sabouraud dextrose agar for 3 days. A stock spore suspension was prepared from a Sabouraud dextrose agar culture by washing with PBS-tween (10 mL; phosphate buffered saline containing 0.05% Tween-20, 100 U/mL penicillin and 100 U/mL streptomycin). The spore count was assessed using a Neubauer haemocytometer and then adjusted to 10^6 spores/mL with PBS. A working suspension of spores (2×10^5 spores/mL) was prepared in filter sterilised, BSA MOPS RPMI-1640 (50 mL; RPMI-1640 containing 2 mM L-glutamine, 0.5% BSA, 2% glucose, 0.165 M MOPS, buffered to pH 7 with NaOH).
(§2) For the assay, BSA MOPS RPMI-1640 (50 μL/well) was added throughout the 384-well plate (Catalogue number 353962, BD Falcon, Oxford, UK) first. Test compounds (0.5 μL DMSO solution) were then added in quadruplicate using an Integra VIAFLO 96 (Integra, Zizers, Switzerland), and mixed well using a plate mixer. Subsequently 50 μL of the working spore suspension prepared above was added to all wells except non-spore control wells. For non-spore control wells, BSA MOPS-RPMI solution (50 μL/well) was added instead. The plate was covered with a plastic lid, and incubated (35° C. with ambient air) for 48 hr. The OD of each well at 530 nm was determined using a multi-scanner (Clariostar: BMG, Buckinghamshire, UK). The percentage inhibition for each well was calculated and the MIC50, MIC75 and MIC90 values were calculated from the concentration-response curve generated for each test compound.

[2] = system: Aspergillus fumigatus L98H (TR34/L98H); experiment: Planktonic fungus growth: broth microdilution assay (L98H); conditions: Aspergillus fumigatus, read-out: MIC75 Values against Aspergillus fumigatus isolate L98H
Experimental: as §1, §2

[3] = Cell viability: resazurin assay; conditions: human, 1 day incubation, resazurin, n = 3
Experimental: BEAS2B cells were seeded in 384-well plates (100 μL; 3000/well/; BD Falcon, Catalogue No 353962) in RPMI-LHC8 (RPMI-1640 and LHC8 media combined in equal proportions) one day before experimentation. For cell-free control wells, RPMI-LHC8 (100 μL) was added. Test compounds (0.5 μL of a DMSO solution) were added to give a final DMSO concentration of 0.5% using an Integra VIAFLO 96 (Integra, Zizers, Switzerland). BEAS2B cells were incubated with each test compound for 1 day (37° C./5% CO2 in RPMI-LHC8). After addition of resazurin stock solution (5 μL, 0.04%) the plates were incubated for a further 4 hr (37° C./5% CO2). The fluorescence of each well at 545 nm (excitation) and 590 nm (emission) was determined using a multi-scanner (Clariostar: BMG Labtech). The percentage loss of cell viability was calculated for each well relative to vehicle (0.5% DMSO) treatment. Where appropriate, a CC50 value was calculated from the concentration-response curve generated from the concentration-response curve for each test compound.

[4] = system: Aspergillus fumigatus NCPF2010; experiment: Planktonic fungus growth: broth microdilution assay (NCPF2010); conditions: Aspergillus fumigatus, NCPF2010, n = 2-3, read-out: MIC75 Values against Aspergillus fumigatus isolate NCPF2010
Experimental: as §1, §2

| Compound | MIC [1] | MIC [2] | CC50 at 1 day ([3]; BEAS2B cells) | MIC [4] | CC50 at 1 day ([3]; read-out: BEAS2B Cell Viability CC50) |
| --- | --- | --- | --- | --- | --- |
| Cc1cc(N2CCN(c3ccc(C(=O)N[C@H]4CCCC[C@@H]4O)cc3)CC2)ccc1OC[C@@H]1CO[C@@](Cn2cncn2)(c2ccc(F)cc2F)C1 [Compound (Ia), 4-(4-(4-(((3R,5R)-5-((1H-1,2,4-triazol-1-yl)methyl)-5-(2,4-difluorophenyl)tetrahydrofuran-3-yl)methoxy)-3-methylphenyl)piperazin-1-yl)-N-((1S,2S)-2-hydroxycyclohexyl) benzamide] | 0.093 µM (≈ 0.0639 µg/mL) | 0.0127 µM (≈ 0.00872 µg/mL) | > 14.6 µM | 0.00281 µM (≈ 0.00193 µg/mL) | – |
| CC[C@@H]([C@H](C)O)n1ncn(-c2ccc(N3CCN(c4ccc(OC[C@@H]5CO[C@@](Cn6cncn6)(c6ccc(F)cc6F)C5)cc4)CC3)cc2)c1=O [Posaconazole, reference compound] | 0.414 µM (≈ 0.29 µg/mL) | 0.0983 µM (≈ 0.0689 µg/mL) | > 14.3 µM | 0.0109 µM (≈ 0.00764 µg/mL) | – |
| C[C@@H](c1ncncc1F)[C@](O)(Cn1cncn1)c1ccc(F)cc1F [Voriconazole] | > 2.86 µM | 2.58 µM (≈ 0.903 µg/mL) | – | 0.511 µM (≈ 0.179 µg/mL) | > 28.6 µM |
